Reference: patent US20250296938A1, “Compounds that Interact with the Ras Superfamily for the Treatment of Cancers, Inflammatory Diseases, Rasopathies, and Fibrotic Disease” (SHY Therapeutics, LLC, priority 2018, published 2025)
Like-named read-outs stand apart in the source and are kept apart here.

Columns and labels:
Experiment in all cases: Ras GTP binding domain inhibition assay (Cy3-GTP/Cy5-GTP competition)
KRas wild type = tested on: KRas wild type; design: species or system human; details: 20 μM; for KRas wild type: % inh.: without SOS; for KRas wild type % inh.: without SOS (Table 7A)
Experimental: (§1) The following method was developed as specific assay for the following proteins: KRas wild type, KRas Q61H mutant, KRas G12C mutant, KRas G12D mutant, HRas wild type, Rac-1, and Rho-A.
(§2) • 25 mM Tris-HCl, pH 7.4 • 27 mM KCl • 137 mM NaCl • 1 mM MgCl2 • 1 mM DTT
(§3) • 50 mM Tris-HCl, pH 7.0 • 1 mM MgCl2 • 1 mM DTT
(§4) The small GTPases proteins: KRas wild type. KRas Q61H mutant, KRas G12C mutant, KRas G12D mutants, HRas wild type, Rac-1, and Rho-A were expressed as His-tagged proteins. In addition, the Guanosine nucleotide Exchange Factor (GEF) Sos protein (residues 556-1049) was expressed as a His-tagged protein. In cells, the guanine nucleotide exchange factor Sos protein promotes activation of Ras proteins by stimulating an exchange of GDP for GTP. The inclusion of Sos to the Ras GTP binding domain inhibition assay may be considered as an alternative representation of physiological cellular conditions for evaluating the inhibitory activity of some of the tested small molecules.
(§5) For the assay, all purified small GTPases proteins were diluted in Buffer-I or Buffer-II to a final concentration of 10-30 μg/mL. 200 μL of each diluted protein was added to a nickel-coated 96-well plate and incubated overnight at 4° C. Then the protein solution was discarded and 200 μL of Buffer-I or Buffer-II was added to each well in the presence of 1% DMSO. Compounds to be tested were added to the protein-coated wells at final concentration of 20 μM, and incubated for 3 hours at room temperature with and without […] of Sos added to the final hour of the incubation. When performing IC50 measurements a serial dilution of all tested concentrations was added. Then Cy3-GTP or Cy5-GTP was added to each well to a final concentration of 100 nM. The labeled GTP was incubated for 45 minutes at room temperature. Following GTP incubation, wells were washed 3× in Buffer-I or Buffer-II and 200 μL of Buffer-I or Buffer-II was added to each well. Following washes, the amount of bound labeled-GTP was measured using a SpectraMax M3 (Molecular Devices).

KRas G12C mutant = tested on: KRas G12C mutant; design: species or system human; details: 20 μM
Experimental: as §1, §2, §3, §4, §5

KRas Q61H mutant = tested on: KRas Q61H mutant; design: species or system human; details: 20 μM
Experimental: as §1, §2, §3, §4, §5

KRas G12D mutant = biological target: T1, KRas G12D mutant (Homo sapiens, UniProt P01116, G12D); details: 20 μM
T1 construct: fused on or other part: His tag, used for capture on nickel-coated plates
Experimental: as §1, §2, §3, §4, §5

[1] = with SOS, read-out: KRas G-12D mutant + SOS: % inh.
[2] = without SOS, read-out: KRas G12D mutant: % inh.
[3] = with SOS (Table 7A), read-out: KRas G12D mutant + SOS: % inh.
[4] = without SOS (Table 7A), read-out: KRas G12D mutant: % inh.

Structure (SMILES)	KRas wild type + SOS: % inh. (KRas wild type; with SOS)	KRas wild type: % inh. (KRas wild type)	KRas G12C mutant + SOS: % inh. (KRas G12C mutant; with SOS)	KRas G12C mutant: % inh. (KRas G12C mutant; without SOS)	KRas Q61H mutant + SOS: % inh. (KRas Q61H mutant; with SOS)	KRas Q61H mutant: % inh. (KRas Q61H mutant; without SOS)	inhibition at 20 µM (KRas G12D mutant; [1])	inhibition at 20 µM (KRas G12D mutant; [2])	KRas wild type + SOS: % inh. (KRas wild type; with SOS (Table 7A))	KRas wild type % inh. (KRas wild type)	KRas G12C mutant + SOS: % inh. (KRas G12C mutant; with SOS (Table 7A))	KRas G12C mutant: % inh. (KRas G12C mutant; without SOS (Table 7A))	KRas Q61H mutant + SOS: % inh. (KRas Q61H mutant; with SOS (Table 7A))	KRas Q61H mutant: % inh. (KRas Q61H mutant; without SOS (Table 7A))	inhibition at 20 µM (KRas G12D mutant; [3])	inhibition at 20 µM (KRas G12D mutant; [4])
COC1CCN(c2nc(-c3nccn3C)nc3sc(-c4cnc(C5CC5)o4)c(-c4ccccc4)c23)C1.Cl (stereo not shown)	C (51-75% inhibition)	C (51-75% inhibition)	C (51-75% inhibition)	C (51-75% inhibition)	C (51-75% inhibition)	B (26-50% inhibition)	51 to 75%	51 to 75%								
COC1CCN(c2nc(-c3nccn3C)nc3sc(-c4ccnn4C)c(-c4ccccc4)c23)C1.Cl (stereo not shown)	C (51-75% inhibition)	B (26-50% inhibition)	C (51-75% inhibition)	C (51-75% inhibition)	C (51-75% inhibition)	B (26-50% inhibition)	51 to 75%	51 to 75%								
COC1CCN(c2nc(-c3nccn3C)nc3sc(-c4ccn(C)n4)c(-c4ccccc4)c23)CC1 [drawing 856]	B (26-50% inhibition)	0 (0% inhibition)	C (51-75% inhibition)	B (26-50% inhibition)	C (51-75% inhibition)	B (26-50% inhibition)	26 to 50%	26 to 50%								
O=C(NC1CCC1)c1nc(-c2ccccn2)nc(O)c1O [drawing 809]	A (1-25% inhibition)	D (76-100% inhibition)	B (26-50% inhibition)	C (51-75% inhibition)	B (26-50% inhibition)	D (76-100% inhibition)	26 to 50%	51 to 75%								
Cn1ccc(-c2sc3nc(-c4nccn4C)nc(N4CCC5(CCOC5)C4)c3c2-c2ccccc2)n1 (stereo not shown) [drawing 857]	A (1-25% inhibition)	A (1-25% inhibition)	B (26-50% inhibition)	A (1-25% inhibition)	B (26-50% inhibition)	B (26-50% inhibition)	1 to 25%	26 to 50%								
COCCn1cc(-c2sc3nc(-c4nccn4C)nc(N4CCC(OC)C4)c3c2-c2ccccc2)cn1.Cl (stereo not shown)	C (51-75% inhibition)	D (76-100% inhibition)	D (76-100% inhibition)	D (76-100% inhibition)	C (51-75% inhibition)	B (26-50% inhibition)	51 to 75%	51 to 75%								
COCCCN(C)c1nc(-c2nccn2C)nc2sc(-c3ccn(C)n3)c(-c3ccccc3)c12 [drawing 865]	B (26-50% inhibition)	A (1-25% inhibition)	B (26-50% inhibition)	A (1-25% inhibition)	B (26-50% inhibition)	A (1-25% inhibition)	26 to 50%	51 to 75%								
COCC1CCN(c2nc(-c3nccn3C)nc3sc(-c4ccn(C)n4)c(-c4ccccc4)c23)C1 (stereo not shown) [drawing 858]	C (51-75% inhibition)	0 (0% inhibition)	C (51-75% inhibition)	B (26-50% inhibition)	D (76-100% inhibition)	C (51-75% inhibition)	26 to 50%	26 to 50%								
Oc1nc(-c2cn3cccnc3n2)nc2c(-c3ccccn3)csc12 [drawing 848]	A (1-25% inhibition)	A (1-25% inhibition)	A (1-25% inhibition)	0 (0% inhibition)	A (1-25% inhibition)	A (1-25% inhibition)	1 to 25%	1 to 25%								
COc1nc(-c2ccccn2)nc(Nc2cnn(C)c2)c1OC [drawing 794]	0 (0% inhibition)	A (1-25% inhibition)	A (1-25% inhibition)	0 (0% inhibition)	A (1-25% inhibition)	0 (0% inhibition)	0%	0%								

The next lines start with the values.

KRas wild type + SOS: % inh. (KRas wild type; with SOS)	KRas wild type: % inh. (KRas wild type)	KRas G12C mutant + SOS: % inh. (KRas G12C mutant; with SOS)	KRas G12C mutant: % inh. (KRas G12C mutant; without SOS)	KRas Q61H mutant + SOS: % inh. (KRas Q61H mutant; with SOS)	KRas Q61H mutant: % inh. (KRas Q61H mutant; without SOS)	inhibition at 20 µM (KRas G12D mutant; [1])	inhibition at 20 µM (KRas G12D mutant; [2])	KRas wild type + SOS: % inh. (KRas wild type; with SOS (Table 7A))	KRas wild type % inh. (KRas wild type)	KRas G12C mutant + SOS: % inh. (KRas G12C mutant; with SOS (Table 7A))	KRas G12C mutant: % inh. (KRas G12C mutant; without SOS (Table 7A))	KRas Q61H mutant + SOS: % inh. (KRas Q61H mutant; with SOS (Table 7A))	KRas Q61H mutant: % inh. (KRas Q61H mutant; without SOS (Table 7A))	inhibition at 20 µM (KRas G12D mutant; [3])	inhibition at 20 µM (KRas G12D mutant; [4])	Structure (SMILES)
D (76-100% inhibition)	B (26-50% inhibition)	D (76-100% inhibition)	C (51-75% inhibition)	D (76-100% inhibition)	B (26-50% inhibition)	76 to 100%	51 to 75%									COCCNc1nc(-c2nccn2C)nc2sc(-c3cccc(OC)c3)c(-c3ccc(OC)cc3)c12 [drawing 875]
								C (51-75% inhibition)	C (51-75% inhibition)	C (51-75% inhibition)	C (51-75% inhibition)	C (51-75% inhibition)	D (76-100% inhibition)	51 to 75%	51 to 75%	COCCn1ccnc1-c1nc(O)c2scc(-c3ccc(OCC(C)C)nc3)c2n1 [drawing 898]
								B (26-50% inhibition)	C (51-75% inhibition)	B (26-50% inhibition)	C (51-75% inhibition)	C (51-75% inhibition)	C (51-75% inhibition)	26 to 50%	26 to 50%	COc1c(O)nc(-c2ccccn2)nc1Nc1ccccc1 [drawing 880]
								C (51-75% inhibition)	C (51-75% inhibition)	C (51-75% inhibition)	C (51-75% inhibition)	C (51-75% inhibition)	D (76-100% inhibition)	76 to 100%	76 to 100%	Cc1c(-c2ccn(C)n2)sc2nc(-c3nccn3C)nc(NCCCS(C)(=O)=O)c12 [drawing 916]
A (1-25% inhibition)	A (1-25% inhibition)	A (1-25% inhibition)	A (1-25% inhibition)	A (1-25% inhibition)	A (1-25% inhibition)	1 to 25%	1 to 25%									COc1cccc(-c2csc3c(O)nc(-c4nccn4C)nc23)c1Cl [drawing 878]
								D (76-100% inhibition)	B (26-50% inhibition)	D (76-100% inhibition)	B (26-50% inhibition)	D (76-100% inhibition)	C (51-75% inhibition)	26 to 50%	26 to 50%	COC1CCC(Nc2nc(-c3nccn3C)nc3sc(-c4cccc5[nH]ncc45)c(-c4ccccc4)c23)C1 (stereo not shown) [drawing 888]
								C (51-75% inhibition)	C (51-75% inhibition)	C (51-75% inhibition)	C (51-75% inhibition)	C (51-75% inhibition)	C (51-75% inhibition)	51 to 75%	51 to 75%	CO[C@H]1C[C@@H](Nc2nc(-c3nccn3C)nc3sc(-c4ccn(C)n4)c(C)c23)C1 [drawing 914]
